The source made the active and inactive calls. No rule for the calls is given here.
Test system: rodent carcinogenicity bioassays, tumor incidence
Test: CCRIS carcinogenicity studies
Procedure, shortened: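 Archive of carcinogenicity, mutagenicity, tumor promotion and tumor inhibition results drawn from journals, NCI reports and other sources, expert-reviewed; covers 1985-2011 and is no longer updated.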

c1ccc2c(c1)cnc1ccccc12
carcinogen call (Species: RAT, Strain/Sex: SPRAGUE-DAWLEY/FEMALE, Route: SUBCUTANEOUS, Dose: 0, 200 UMOL/KG IN DMSO INTO SUPRASCAPULAR AREA ON DAY 1 OF LIFE FOLLOWED BY 0, 100 UMOL 1/WK AT WK 2-7 THEN 0, 200 UMOL/, Dose: 0, 200 UMOL/KG IN DMSO INTO SUPRASCAPULAR AREA ON DAY 1 OF LIFE FOLLOWED BY 0, 100 UMOL 1/WK AT WK 2-7 THEN 0, 200 UMOL/): inactive; negative | carcinogen call (Species: RAT, Strain/Sex: SPRAGUE-DAWLEY/MALE, Route: SUBCUTANEOUS, Dose: 0, 200 UMOL/KG IN DMSO INTO SUPRASCAPULAR AREA ON DAY 1 OF LIFE FOLLOWED BY 0, 100 UMOL 1/WK AT WK 2-7 THEN 0, 200 UMOL/, Dose: 0, 200 UMOL/KG IN DMSO INTO SUPRASCAPULAR AREA ON DAY 1 OF LIFE FOLLOWED BY 0, 100 UMOL 1/WK AT WK 2-7 THEN 0, 200 UMOL/): inactive; negative

CCC1c2ccc(O)cc2C(C)C1c1ccc(O)cc1 (stereo unspecified)
carcinogen call (Species: HAMSTER, Strain/Sex: SYRIAN/MALE, Route: SUBCUTANEOUS IMPLANT, Dose: 0, 20 MG IN PELLETS IMPLANTED EVERY 2.5 MO FOR 9 MO (STUDY DURATION: 9 MO)): inactive; negative

CCCCCCCCCCCCN=C(N)N
carcinogen call (Species: Mouse, Strain/Sex: Crl:CD-1(ICR)BR/Female (70/Group), Route: Oral, Dose: 0, 200, 750, 1500 ppm in diet for 78 wk, study duration 78 wk. Test sample purity, 98%., Dose: 0, 200, 750, 1500 ppm in diet for 78 wk, study duration 78 wk. Test sample purity, 98%., Tumor Site: Type of Lesion: Liver: Hepatocellular adenoma and carcinoma combined (high dose only)): active; positive, (neither tumor type, alone, was statistically significant.) | carcinogen call (Species: Mouse, Strain/Sex: Crl:CD-1(ICR)BR/Male (70/Group), Route: Oral, Dose: 0, 200, 750, 1500 ppm in diet for 78 wk, study duration 78 wk. Test sample purity, 98%., Dose: 0, 200, 750, 1500 ppm in diet for 78 wk, study duration 78 wk. Test sample purity, 98%.): inactive; negative | carcinogen call (Species: Rat, Strain/Sex: Sprague-Dawley/Female (60/Group), Route: Oral, Dose: 0, 13.2, 26.5, 53.5 mg/kg/day in diet on wks 1-101, study duration 2 yrs. Test sample purity, 98.6%., Dose: 0, 13.2, 26.5, 53.5 mg/kg/day in diet on wks 1-101, study duration 2 yrs. Test sample purity, 98.6%.): inactive; negative | carcinogen call (Species: Rat, Strain/Sex: Sprague-Dawley/Male (60/Group), Route: Oral, Dose: 0, 10.2, 20.3, 41.9 mg/kg/day in diet on wks 1-101, study duration 2 yrs. Test sample purity, 98.6%, Dose: 0, 10.2, 20.3, 41.9 mg/kg/day in diet on wks 1-101, study duration 2 yrs. Test sample purity, 98.6%): inactive; negative

CC/C(=C(/CC)c1ccc(O)cc1)c1ccc(O)cc1
carcinogen call (Species: HAMSTER, Route: PRE-NATAL EXPOSURE, Tumor Site: Type of Lesion: UTERUS, ACCESSORY SEX ORGANS (M), VAGINA, CERVIX, Tumor Site: Type of Lesion: UTERUS, ACCESSORY SEX ORGANS (M), VAGINA, CERVIX): active; positive | carcinogen call (Species: HAMSTER, Route: SUBCUTANEOUS IMPLANT, Tumor Site: Type of Lesion: KIDNEY): active; positive | carcinogen call (Species: HAMSTER, Route: SUBCUTANEOUS, Tumor Site: Type of Lesion: KIDNEY): active; positive | carcinogen call (Species: HAMSTER, Strain/Sex: SYRIAN/MALE, Route: SUBCUTANEOUS IMPLANT, Dose: 0, 20 MG IN PELLETS IMPLANTED EVERY 2.5 MO FOR 9 MO (STUDY DURATION: 9 MO), Tumor Site: Type of Lesion: KIDNEY: TUMOR): active; positive | carcinogen call (Species: HUMAN, Route: DERMAL, Tumor Site: Type of Lesion: CERVIX OR VAGINA): active; positive | carcinogen call (Species: MONKEY, Route: SUBCUTANEOUS, Tumor Site: Type of Lesion: UTERUS): active; positive | carcinogen call (Species: MOUSE, Route: NEO-NATAL EXPOSURE, Tumor Site: Type of Lesion: CERVIX, VAGINA): active; positive | carcinogen call (Species: MOUSE, Route: ORAL, Tumor Site: Type of Lesion: MAMMARY GLAND, CERVIX, VAGINA, Tumor Site: Type of Lesion: MAMMARY GLAND, CERVIX, VAGINA): active; positive | carcinogen call (Species: MOUSE, Route: PRE-NATAL EXPOSURE, Tumor Site: Type of Lesion: CERVIX, VAGINA, OVARIES, Tumor Site: Type of Lesion: CERVIX, VAGINA, OVARIES): active; positive | carcinogen call (Species: MOUSE, Route: SUBCUTANEOUS IMPLANT, Tumor Site: Type of Lesion: TESTES, MAMMARY GLAND, LYMPHATIC SYSTEM, Tumor Site: Type of Lesion: TESTES, MAMMARY GLAND, LYMPHATIC SYSTEM): active; positive | carcinogen call (Species: MOUSE, Route: SUBCUTANEOUS, Tumor Site: Type of Lesion: MAMMARY GLAND, GENITAL TRACT, OVARIES, Tumor Site: Type of Lesion: MAMMARY GLAND, GENITAL TRACT, OVARIES): active; positive | carcinogen call (Species: MOUSE, Strain/Sex: C3H/FEMALE, Route: ORAL, Dose: 0, 2.5, 5, 10, 20, 40, 80, 160, 320, 640 PPB IN DIET (STUDY DURATION: 455 D), Dose: 0, 2.5, 5, 10, 20, 40, 80, 160, 320, 640 PPB IN DIET (STUDY DURATION: 455 D), Tumor Site: Type of Lesion: MAMMARY GLAND: ADENOCARCINOMA): active; positive | carcinogen call (Species: MOUSE, Strain/Sex: C57BL/6/MALE,FEMALE (WILD TYPE), Route: DIET, Dose: 0, 1500 PPB IN DIET FOR 39 WKS (STUDY DURATION: 39 WKS)): inactive; negative | carcinogen call (Species: MOUSE, Strain/Sex: C57BL/6/XPA/P53/MALE,FEMALE (TRANSGENIC), Route: DIET, Dose: 0, 1500 PPB IN DIET FOR 39 WKS (STUDY DURATION: 39 WKS), Tumor Site: Type of Lesion: BONE: OSTEOSARCOMA (MALES ONLY), TESTICULAR INTERSTITIAL CELL ADENOMA (BENIGN), MALES): active; positive in males only | carcinogen call (Species: MOUSE, Strain/Sex: C57BL/6XPA/MALE,FEMALE (TRANSGENIC), Route: DIET, Dose: 0, 100, 300, 1500 PPB IN DIET FOR 39 WKS (STUDY DURATION: 39 WKS), Dose: 0, 100, 300, 1500 PPB IN DIET FOR 39 WKS (STUDY DURATION: 39 WKS), Tumor Site: Type of Lesion: PITUITARY: ADENOMA (BENIGN)): significant in males at 1500 ppb only | carcinogen call (Species: MOUSE, Strain/Sex: CD-1/FEMALE, Route: INTRAPERITONEAL, Dose: 0, 1 UG/G BW ADMINISTERED TO PREGNANT MICE AT 16 D AND 16 HR, 17 D, OR 17 D 16 HR POST CONCEPTION OR 2 UG/G BW AT 17 D 1, Tumor Site: Type of Lesion: PITUITARY GLAND: TUMOR): active; positive | carcinogen call (Species: RAT, Route: NEO-NATAL EXPOSURE, Tumor Site: Type of Lesion: ACCESSORY SEX ORGANS (M)): active; positive | carcinogen call (Species: RAT, Route: ORAL, Tumor Site: Type of Lesion: MAMMARY GLAND, PITUITARY GLAND): active; positive | carcinogen call (Species: RAT, Route: SUBCUTANEOUS IMPLANT, Tumor Site: Type of Lesion: MAMMARY GLAND, URINARY BLADDER): active; positive | carcinogen call (Species: RAT, Route: SUBCUTANEOUS, Tumor Site: Type of Lesion: MAMMARY GLAND, PITUITARY GLAND): active; positive | carcinogen call (Species: RAT, Strain/Sex: ACI/FEMALE, Route: SUBCUTANEOUS IMPLANT, Dose: 0, 1.25 MG/100 G ONCE IN A 20 MG PELLET AT AGES 75, 127 AND 177 D (STUDY DURATION: 347-365 D), Tumor Site: Type of Lesion: MAMMARY GLAND: ADENOCARCINOMA): active; positive | carcinogen call (Species: RAT, Strain/Sex: WISTAR/FEMALE, Route: SUBCUTANEOUS, Dose: 0, 0.1, 0.5 MG/KG TO MOTHERS ON D 18, 19 AND 20 OF GESTATION (STUDY DURATION: 2 YR), Dose: 0, 0.1, 0.5 MG/KG TO MOTHERS ON D 18, 19 AND 20 OF GESTATION (STUDY DURATION: 2 YR), Tumor Site: Type of Lesion: VAGINA: TUMOR): active; positive | carcinogen call (Species: RAT, Strain/Sex: WISTAR/FEMALE, Route: SUBCUTANEOUS, Dose: 0, 25, 50 MG/KG TO MOTHERS ON D 19 AND 20 OF GESTATION (STUDY DURATION: 2 YR), Dose: 0, 25, 50 MG/KG TO MOTHERS ON D 19 AND 20 OF GESTATION (STUDY DURATION: 2 YR), Tumor Site: Type of Lesion: VAGINA: TUMOR): active; positive

CCN(CC)C(=O)N(CC)N=O
carcinogen call (Species: HAMSTER, Strain/Sex: SYRIAN/MALE, Route: GAVAGE, Dose: 0, 45 MG/ML (0.2 ML OF A SOLUTION IN 50% ETHANOL) 1/WK FOR 25 WK (STUDY DURATION: LIFE SPAN), Tumor Site: Type of Lesion: SPLEEN: HEMANGIOSARCOMA, FORESTOMACH: SQUAMOUS CELL CARCINOMA OR PAPILLOMA): active; positive

— PubChem BioAssay AID1259411 (Chemical Carcinogenesis Research Information System (CCRIS), 2018)
